From PubChem BioAssay AID844 (SRMLSC, 2007)
The source made the active and inactive calls. How the calls were made is not given here.

Tested on: MRP1 cells, doxorubicin viability shift, 10 uM compound
Experiment: viability protection against doxorubicin, MRP-1 line – cell-based, doxorubicin EC50 shift, dose response (AID 844)
Details: for EC50: measured here: doxorubicin EC50 with compound

Row | SMILES | fold increase in Dox EC50 | EC50 [µM]
1 | CCOC(=O)c1sc(-c2ccccc2)cc1NC(=O)Nc1ccccc1 | 0.4 (inactive) | 2.16
2 | Cc1cc(C(=O)N/N=C/c2cc(Br)ccc2OC(=O)c2ccccc2)n[nH]1 | 0.15 (inactive) | 0.808
3 | Cc1ccccc1Cn1nc(C)c(NC(=O)c2noc3c2CCc2ccccc2-3)c1C | 1.96 | 10.6
4 | COc1ccc(-c2nnc(SC(C)C(=O)Nc3cccc(Cl)c3)o2)cc1 (stereo not given) | 0.74 (inactive) | 4
5 | Cc1cccc(OCc2nc(-c3nonc3N)no2)c1C | 0.78 (inactive) | 4.22
6 | N#CC(C#N)=NNc1ccc(S(=O)(=O)N2CCCC2)cc1 | 1.09 (inactive) | 5.88
7 | CC(/C=N/NC(=O)c1nn(C)c(C)c1Br)=C\c1ccccc1 | 1.25 (inactive) | 6.72
8 | O=C(COc1ccc2oc3c(c2c1)CCCC3)Nc1ccccn1 | 1.27 (inactive) | 6.85
9 | CC12CCC(c3nnc(SCc4ccc(Cl)cc4)nc31)C2(C)C (stereo not given) | 1.32 (inactive) | 7.1
10 | CCOc1ccc2nc(SCC#N)c(C#N)cc2c1 | 0.3 (inactive) | 1.62
11 | C/C(=N\NC(=O)CCc1c[nH]c2ccccc12)c1cccc([N+](=O)[O-])c1 | 0.8 (inactive) | 4.33
12 | Cc1cc(/C=C2\SC(=S)NC2=O)c(C)n1C | 1.44 (inactive) | 7.78
13 | CC(C)(CNC(=O)/C=C/c1ccc(F)cc1)CNC(=O)/C=C/c1ccc(F)cc1 | 0.38 (inactive) | 2.07
14 | CCc1nnc(NC(=O)c2ccc(-c3ccc(Cl)cc3)o2)s1 | 1.19 (inactive) | 6.41
15 | CCOc1ccc2c(c1)c(N=O)c(O)n2C | 0.58 (inactive) | 3.14
16 | N=c1oc2c3c4c(cc2cc1C(=O)Nc1ccccc1)CCCN4CCC3 | 0.43 (inactive) | 2.32
17 | Cc1nc(OCc2ccccc2)c2sc3nc4c(cc3c2n1)COC(C)(C)C4 | 1.3 (inactive) | 7.04
18 | Clc1ccc(CSc2ncn[nH]2)cc1 | 1.03 (inactive) | 5.54
19 | Cc1onc(-c2c(F)cccc2Cl)c1C(=O)Nc1sc2c(c1C#N)CCC(C(C)(C)C)C2 (stereo not given) | 0.48 (inactive) | 2.61
20 | CCOC(=O)c1ccccc1NC(=O)C1COc2ccccc2O1 (stereo not given) | 0.42 (inactive) | 2.28
21 | O=C(COc1ccc(Cl)cc1)N1CCN(S(=O)(=O)c2ccccc2)CC1 | 0.68 (inactive) | 3.68
22 | O=C(COc1ccc(Cl)cc1)N1CCN(Cc2ccccc2)CC1 | 1.38 (inactive) | 7.48
23 | N#Cc1c(-c2ccccc2)nc(SCC(=O)N(c2ccccc2)c2ccccc2)[nH]c1=O | 1.08 (inactive) | 5.86
24 | CCOC(=O)C1=C(C)Nc2ncnn2C1c1cccnc1 (stereo not given) | 0.83 (inactive) | 4.5
25 | CCOC(=O)CN(C(=O)CSc1nnc(COc2ccc(OC)cc2)n1C)c1ccccc1 | 0.6 (inactive) | 3.26
26 | COc1cccc(/C=N\NC(=O)C2=NNC(=O)C2C)c1O (stereo not given) | 1.2 (inactive) | 6.47
27 | COC(=O)/C(=C/Nc1ccc(O)cc1)[N+](=O)[O-] | 0.21 (inactive) | 1.12
28 | COc1ccc(Cc2nnc(N/N=C/c3ccc(O)cc3O)[nH]c2=O)cc1OC | 0.15 (inactive) | 0.836

Row | SMILES | fold increase in Dox EC50 | EC50 [µM]
29 | CCOc1ccc(-c2nc(C#N)c(NCC(C)C)o2)cc1 | 1.19 (inactive) | 6.4
30 | COc1ccc(-c2[nH]ncc2-c2cnn(-c3ccccc3)c2)c(O)c1 | 0.27 (inactive) | 1.43
31 | COc1cc(S(=O)(=O)Nc2cccc(C)c2)ccc1NC(=O)c1ccncc1 | 0.6 (inactive) | 3.26
32 | COc1ccccc1NC(=O)CSC(N)=O | 0.81 (inactive) | 4.4
33 | O=C(Nc1ccn(Cc2c(F)c(F)cc(F)c2F)n1)c1ccc(COc2ccc(Cl)cc2Cl)o1 | 1.01 (inactive) | 5.45
34 | O=C(Nc1ccn(Cc2ccccc2F)n1)c1ccc(COc2ccc(Cl)cc2Cl)o1 | 0.95 (inactive) | 5.15
35 | O=C1CSC2=NCN(c3ccccc3)CN12 | 0.55 (inactive) | 2.95
36 | O=C(NNC(=O)c1cccc(S(=O)(=O)N2CCN(c3ccccc3)CC2)c1)c1ccc(Cl)cc1 | 1.47 (inactive) | 7.95
37 | CCCCc1nnc(NC(=O)CSc2nc(=O)cc(N)n2-c2cccc(C)c2)s1 | 1.31 (inactive) | 7.08
38 | COCCOC(=O)c1c(C)oc2ccc(OCC=C(C)C)cc12 | 0.5 (inactive) | 2.69
39 | O=C1c2cccc3cccc(c23)C(=O)N1c1ccncc1 | 1.13 (inactive) | 6.09
40 | CC(C)(C)c1ccc(C(=O)CSc2ncn[nH]2)cc1 | 0.82 (inactive) | 4.41
41 | O=C(O)CCN1C(=O)CC(N2C(=O)/C(=C/c3ccc(Cl)cc3)SC2=S)C1=O (stereo not given) | 1.3 (inactive) | 7.04
42 | CN(C)C(=O)Oc1ccc(OC(=O)c2ccccc2)cc1 | 1.17 (inactive) | 6.32
43 | Cc1ccc(/C=C2\SC(=S)N(CCCC(=O)Nc3nccs3)C2=O)cc1 | 0.3 (inactive) | 1.64
44 | Cc1ccc(NC(=O)CCSc2nnnn2-c2ccc3c(c2)OCO3)cc1C | 0.74 (inactive) | 3.98
45 | C=CCNC(=S)NNC(=O)COc1ccc(Br)cc1 | 0.71 (inactive) | 3.82
46 | Cc1nc2c(ccc3nc(NC(=O)C(c4ccccc4)c4ccccc4)sc32)s1 | 0.84 (inactive) | 4.51
47 | CCOc1ccccc1Nc1ncnc2c1cnn2-c1ccccc1 | 0.57 (inactive) | 3.08
48 | CC1=C(C(=O)OC(C)C)C(c2cccc(F)c2)N2C(=O)C(C)SC2=N1 (stereo not given) | 1.21 (inactive) | 6.53
49 | COc1cc(C2NC(=O)NC(C)=C2C(=O)OCc2ccc(C)cc2)cc(OC)c1O (stereo not given) | 0.68 (inactive) | 3.65
50 | CCOC(=O)/C(=N\Nc1ccccc1Cl)N1CCN(Cc2ccccc2)CC1 | 0.63 (inactive) | 3.43
51 | CC1(C)CC(=O)C2=C(C1)N=C1SCCC(=O)N1C2c1ccc(C(F)(F)F)cc1 (stereo not given) | 1.21 (inactive) | 6.51
52 | O=C(c1ccccc1)C(Sc1ncn[nH]1)c1ccccc1 (stereo not given) | 0.68 (inactive) | 3.7
53 | CN(C)c1ccc(NC(=O)CN2C(=O)CN=C(c3ccccc3)c3cc(Cl)ccc32)cc1 | 1.29 (inactive) | 6.99
54 | CC1CCN(c2ncnc3c2cnn3-c2ccccc2)CC1 | 0.31 (inactive) | 1.65
55 | Cc1ccc(OCCN2CCN(C(=O)CCC(=O)Nc3nnc(C)s3)CC2)cc1 | 1.53 | 8.28
